24 molecules from ChEMBL document CHEMBL1128016, “5-Cyano-2-thiouracils and their derivatives: a new class of leishmanicides” (1994) can be followed below.

For orientation: Inhibition means how much of the control response was suppressed. Broadly, the inhibition is the relative decrease from the control value, in per cent.

The subject of assay [1] is Leishmania donovani. Put plainly: In vivo anti-leishmanial activity was determined against hamster amastigotes of Leishmania donovani. The assay is classed as functional. On the set-up: concentration or dose not given beside the values.
Assay [2] has as its system Leishmania donovani. The experiment in a line: In vivo anti-leishmanial activity against hamster amastigotes of Leishmania donovani at a dose of 10 mg/kg for a period of 5 days. In kind it is functional, organism-based. Also noted: dose 10 mg/kg.

As to `Cc1cccc(-c2nc(SCc3ccccc3)nc(O)c2C#N)c1`, in the assay with Leishmania donovani [1], the Inhibition amounted to 0%. `C=CCSc1nc(O)c(C#N)c(-c2ccc(C)cc2)n1` came in with an Inhibition in the assay with Leishmania donovani [1] of 75%. Molecule `COc1cccc(-c2nc(SC)nc(Cl)c2C#N)c1` displayed an Inhibition in the assay with Leishmania donovani [1] of 30%. Same read-out and setting: the figure for `N#Cc1c(Nc2ccccc2)nc(SCc2ccccc2)nc1-c1cccnc1` is 57%; for `CSc1nc(Cl)c(C#N)c(-c2ccc(C)cc2)n1` it is 36%. Still for that read-out and setting: under `Cc1ccc(-c2nc3n(c(=O)c2C#N)CCCS3)cc1` stands 62%; under `Cc1ccc(-c2nc(SCc3ccccc3)[nH]c(=O)c2C#N)cc1`, 82%; under `CCC1NC(=S)NC(=O)C1C#N` (centres undefined), 80%. As for `CCc1nc(SCc2ccc(Cl)cc2)nc(O)c1C#N`, the Inhibition with Leishmania donovani [1] worked out at 76%. `C=CCSc1nc(O)c(C#N)c(-c2cccc(OC)c2)n1` returned an Inhibition in the assay with Leishmania donovani [1] of 80%. In turn, `COc1cccc(-c2nc3n(c(=O)c2C#N)CCCS3)c1` returned an Inhibition in the assay on Leishmania donovani [1] of 63%. In the case of `N#Cc1c(O)nc(SCc2ccc(Cl)cc2)nc1-c1cccnc1`, the Inhibition in the assay on Leishmania donovani [1] turned out to be 84%. The molecule `N#Cc1c(Nc2ccc(F)cc2)nc(SCc2ccccc2)nc1-c1cccnc1` had an Inhibition in the assay on Leishmania donovani [1] of 78%.

For the molecule `COc1cccc(-c2nc3n(c(=O)c2C#N)CCS3)c1`, the Inhibition with Leishmania donovani [1] is given as 73%. Same read-out and setting: under `COc1cccc(-c2nc(SCc3ccc(Cl)cc3)nc(O)c2C#N)c1` stands 85%; under `COc1cccc(-c2nc(S)nc(O)c2C#N)c1`, 78%; under `N#Cc1c(O)nc(S)nc1-c1ccc(F)cc1`, 63%.

Consider Sodium stibogluconate, for which, in the assay on Leishmania donovani [2], the inhibition turned out to be 86%. As for `N#Cc1c(O)nc(S)nc1-c1ccccc1Cl`, in the assay on Leishmania donovani [1], the Inhibition is 0%. `CSc1nc(-c2ccc(C)cc2)c(C#N)c(=O)n1C` yielded an Inhibition in the assay with Leishmania donovani [1] of 50%.

`Cc1ccc(-c2nc(S)nc(O)c2C#N)cc1`: in the assay on Leishmania donovani [1], the Inhibition turned out to be 63%. Consider `Cc1ccc(-c2nc3n(c(=O)c2C#N)CCS3)cc1`, for which the Inhibition in the assay with Leishmania donovani [1] is 65%. Same read-out and setting: under `COc1cccc(-c2nc(SC)n(C)c(=O)c2C#N)c1` stands 61%. The molecule `COc1cccc(-c2nc(SCc3ccccc3)nc(O)c2C#N)c1` came in with an Inhibition in the assay with Leishmania donovani [1] of 0%.
